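The compound was tested at five concentrations on cells cultured in 96-well plates, with a 48-hour exposure period. The concentration for 50% growth inhibition is given as GI50. TGI is the concentration that stops growth completely.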
How the values were obtained:
Assay in all cases: NCI tumour cell line growth inhibition, 48 h
NCI-H522 lung = system: NCI-H522 lung
HCT-15 colon = system: HCT-15 colon
HOP-92 NSCLC = system: HOP-92 NSCLC
MCF7 breast = system: MCF7 breast
MDA-MB-231 breast = system: MDA-MB-231 breast
OVCAR-8 ovarian = system: OVCAR-8 ovarian
SNB-19 CNS = system: SNB-19 CNS
T-47D breast = system: T-47D breast
K-562 leukemia = system: K-562 leukemia
M14 melanoma = system: M14 melanoma

Compound	GI50 (NCI-H522 lung)	TGI (NCI-H522 lung)	GI50 (HCT-15 colon)	TGI (HCT-15 colon)	GI50 (HOP-92 NSCLC)	TGI (HOP-92 NSCLC)	GI50 (MCF7 breast)	TGI (MCF7 breast)	GI50 (MDA-MB-231 breast)	TGI (MDA-MB-231 breast)	GI50 (OVCAR-8 ovarian)	TGI (OVCAR-8 ovarian)	GI50 (SNB-19 CNS)	TGI (SNB-19 CNS)	GI50 (T-47D breast)	TGI (T-47D breast)	GI50 (K-562 leukemia)	TGI (K-562 leukemia)	GI50 (M14 melanoma)	TGI (M14 melanoma)
CC(C)(C)c1nnc2n(c1=O)N=CC(c1ccc(Br)cc1)S2 (stereo not given)	19.2 µM	41.7 µM	20.1 µM	48 µM	40.9 µM	> 100 µM	42 µM	> 100 µM	24.5 µM	48.1 µM	34.7 µM	> 100 µM	51.3 µM	> 100 µM	23.8 µM	> 100 µM	26.5 µM	> 100 µM	24.4 µM	63.1 µM
Nc1c(O)c(S(=O)(=O)O)c(O)c2c1C(=O)c1ccccc1C2=O	2.68 µM	9.17 µM	2.64 µM	11.2 µM	1.5 µM	4.65 µM	2.5 µM	8.13 µM	5.85 µM	28.1 µM	2.98 µM	13.4 µM	3.8 µM	52.4 µM	2.36 µM	7.37 µM	3.13 µM	13.9 µM	3.95 µM	> 100 µM
Cc1ccc(-n2c(-c3ccc(Cl)cc3)cs/c2=N\NC(=O)COc2n[nH]c(=O)c3ccccc23)cc1	> 100 µM	> 100 µM	> 100 µM	> 100 µM	34.6 µM	> 100 µM	70.7 µM	> 100 µM	68.4 µM	> 100 µM	16.6 µM	> 100 µM	40 µM	> 100 µM	> 100 µM	> 100 µM	> 100 µM	> 100 µM	> 100 µM	> 100 µM
Oc1ccc(SCc2ccc(NCc3ccccc3)cc2)cc1		98.2 µM		> 100 µM		> 100 µM		> 100 µM		> 100 µM		> 100 µM		64.8 µM		56.6 µM		> 100 µM		44.5 µM
O=[N+]([O-])c1ccc2c(c1)S(=O)c1ccccc1-2 (stereo not given)		> 100 µM		> 100 µM		> 100 µM		> 100 µM		> 100 µM		> 100 µM		> 100 µM		> 100 µM		> 100 µM		> 100 µM
COc1ccc(-c2c(C#N)c(N)nc3c2CCCc2ccc(F)cc2-3)cc1OC	< 0.01 µM	33.5 µM	< 0.0497 µM	0.504 µM	4.73 µM	> 100 µM	< 0.01 µM	> 100 µM	< 0.0399 µM	0.758 µM	0.419 µM	> 100 µM	20.7 µM	> 92.1 µM	22.3 µM	> 100 µM	< 0.01 µM	> 100 µM	0.0758 µM	0.402 µM
COc1cc2c3c(n(C)c(=O)c2cc1OC)-c1cc2c(cc1/C3=C\[C@@H](N)CCCCN)OCO2	1.37 µM	> 23.2 µM	60.3 µM	> 100 µM	1.7 µM	29.4 µM	0.657 µM	> 49.3 µM	1.54 µM	> 48.5 µM	2.66 µM	> 45.8 µM	1.46 µM	> 100 µM	13 µM	> 100 µM	2.43 µM	> 72.2 µM	6.9 µM	> 100 µM
Oc1ccc(-c2nc3ccc4[nH]ncc4c3c3c2CCCC3)c2cccnc12	0.119 µM	5.2 µM	0.153 µM	7.3 µM	0.11 µM	0.794 µM	0.179 µM	2.89 µM	0.423 µM	6.79 µM	0.148 µM	10.8 µM	0.164 µM	13.1 µM	0.697 µM	4.67 µM	0.139 µM	33.3 µM	0.163 µM	2.21 µM
CS(=O)(=O)CS(=O)CS(=O)CS(=O)CC(NC(=O)CCC(N)C(=O)O)C(=O)O (stereo not given)		> 100 µM		> 100 µM		> 100 µM		> 100 µM		> 100 µM		> 100 µM		> 100 µM		> 100 µM		> 100 µM		> 100 µM
CCCCc1nc2cc(/C=C/C(=O)NO)ccc2n1CCN(CC)CC	0.0802 µM	0.52 µM	1.47 µM	22.4 µM	0.0821 µM	0.456 µM	0.202 µM	> 20.3 µM	0.485 µM	5.43 µM	0.104 µM	5.54 µM	0.593 µM	12.2 µM	0.136 µM	> 47.4 µM	0.282 µM	> 100 µM	0.358 µM	5.32 µM
C=CCNc1cccc2c1C(=O)c1ccccc1C2(O)CC=C (stereo not given)	18.4 µM	51.6 µM	15.5 µM	57 µM	27.4 µM	55.4 µM	66.7 µM	> 100 µM	12.3 µM	28.3 µM	19.5 µM	47.1 µM	18.5 µM	44.7 µM	32.2 µM	> 100 µM	31.1 µM	95.2 µM	19 µM	41 µM

— PubChem BioAssay (NCI)
